Assay results: ChEMBL document CHEMBL1146256, “ATP-conjugated peptide inhibitors for calmodulin-dependent protein kinase II” (Bioorg Med Chem Lett, 2007)
Starred links: 1 amine or outer side, 2 acyl side, 3 side chain; linkers in the order of their positions; H or OH if unused. Non-standard residues stand in square brackets, D forms with d. Residues, ends and D or L forms follow the SMILES beside them. ξ: configuration not given here. *: point of attachment. X1 = Nc1ncnc2c1ncn2[C@@H]1O[C@H](COP(=O)(O)OP(=O)(O)OP(=O)(O)OC2CC(=O)N(CCOCCOCCOCCN3C(=O)CC(S[C@@H](N[*:1])C(=O)[*:2])C3=O)C2=O)[C@@H](O)[C@H]1O; Biotin = O=C1N[C@H]2[C@H](CS[C@H]2CCCCC(=O)*)N1; ξF = NC(Cc1ccccc1)C(=O)O

Assay: Inhibition of CaMK2
Set-up: species or system Homo sapiens

| Molecule | IC50 [µM] |
| --- | --- |
| CC(C)C[C@H](NC(=O)[C@H](C)NC(=O)[C@H](CC(=O)O)NC(=O)CNCC(=O)[C@H](CNC(=O)CCOP(=O)(O)OP(=O)(O)OP(=O)(O)OC[C@@H]1O[C@H](n2cnc3c(N)ncnc32)[C@@H](O)[C@H]1O)NC(=O)[C@H](CCC(=O)O)NC(=O)[C@H](CCC(N)=O)NC(=O)[C@H](CCCNC(=N)N)NC(=O)[C@H](CCCNC(=N)N)NC(=O)[C@H](CC(C)C)NC(=O)[C@H](C)NC(=O)[C@H](CCCCN)NC(=O)[C@H](CCCCN)NC(=O)CCCC[C@@H]1SC[C@@H]2NC(=O)N[C@@H]21)C(=O)O | 1.32 |
| CC(C)C[C@H](NC(=O)[C@H](C)NC(=O)[C@H](CCCCN)NC(=O)[C@H](CCCCN)NC(=O)CCCC[C@@H]1SC[C@@H]2NC(=O)N[C@@H]21)C(=O)N[C@@H](CCCNC(=N)N)C(=O)N[C@@H](CCCNC(=N)N)C(=O)N[C@@H](CCC(N)=O)C(=O)N[C@@H](CCC(=O)O)C(=O)N[C@@H](C)C(=O)NCC(=O)N[C@@H](CC(=O)O)C(=O)N[C@@H](C)C(=O)N[C@@H](CC(C)C)C(=O)N[C@H](SC1CC(=O)N(CCOCCOCCOCCN2C(=O)CC(OP(=O)(O)OP(=O)(O)OP(=O)(O)OC[C@H]3O[C@@H](n4cnc5c(N)ncnc54)[C@H](O)[C@@H]3O)C2=O)C1=O)C(=O)O (some centres undefined) (Biotin-KKALRRQEAGDAL[X1]-OH) | 18 |
| H-KKALRRQEAVDAL-OH | 0.32 |
| CC(C)C[C@H](NC(=O)[C@H](C)NC(=O)[C@H](CC(=O)O)NC(=O)[C@@H](NCC(=O)[C@H](CNC(=O)CCOP(=O)(O)OP(=O)(O)OP(=O)(O)OC[C@@H]1O[C@H](n2cnc3c(N)ncnc32)[C@@H](O)[C@H]1O)NC(=O)[C@H](CCC(=O)O)NC(=O)[C@H](CCC(N)=O)NC(=O)[C@H](CCCNC(=N)N)NC(=O)[C@H](CCCNC(=N)N)NC(=O)[C@H](CC(C)C)NC(=O)[C@H](C)NC(=O)[C@H](CCCCN)NC(=O)[C@H](CCCCN)NC(=O)CCCC[C@@H]1SC[C@@H]2NC(=O)N[C@@H]21)C(C)C)C(=O)O | 0.067 |
| H-KKKLRRQEAFDAL-OH | 0.076 |
| H-KKALRRQEAGDAL-OH | 4 |
| CC(C)C[C@H](NC(=O)[C@H](C)NC(=O)[C@H](CC(=O)O)NC(=O)[C@H](Cc1ccccc1)NCC(=O)[C@H](CNC(=O)CCOP(=O)(O)OP(=O)(O)OP(=O)(O)OC[C@@H]1O[C@H](n2cnc3c(N)ncnc32)[C@@H](O)[C@H]1O)NC(=O)[C@H](CCC(=O)O)NC(=O)[C@H](CCC(N)=O)NC(=O)[C@H](CCCNC(=N)N)NC(=O)[C@H](CCCNC(=N)N)NC(=O)[C@H](CC(C)C)NC(=O)[C@H](CCCCN)NC(=O)[C@H](CCCCN)NC(=O)[C@H](CCCCN)NC(=O)CCCC[C@@H]1SC[C@@H]2NC(=O)N[C@@H]21)C(=O)O | 0.022 |
| CC(C)C[C@H](NC(=O)[C@H](C)NC(=O)[C@H](CC(=O)O)NC(=O)C(Cc1ccccc1)NC(=O)[C@H](C)NC(=O)[C@H](CCC(=O)O)NC(=O)[C@H](CCC(N)=O)NC(=O)[C@H](CCCNC(=N)N)NC(=O)[C@H](CCCNC(=N)N)NC(=O)[C@H](CC(C)C)NC(=O)[C@H](CCCCN)NC(=O)[C@H](CCCCN)NC(=O)[C@H](CCCCN)NC(=O)CCCC[C@@H]1SC[C@@H]2NC(=O)N[C@@H]21)C(=O)N[C@H](SC1CC(=O)N(CCOCCOCCOCCN2C(=O)CC(OP(=O)(O)OP(=O)(O)OP(=O)(O)OC[C@H]3O[C@@H](n4cnc5c(N)ncnc54)[C@H](O)[C@@H]3O)C2=O)C1=O)C(=O)O (some centres undefined) (Biotin-KKKLRRQEA[ξF]DAL[X1]-OH) | 0.181 |
| CC(C)C[C@H](NC(=O)[C@H](C)NC(=O)[C@H](CCCCN)NC(=O)[C@H](CCCCN)NC(=O)CCCC[C@@H]1SC[C@@H]2NC(=O)N[C@@H]21)C(=O)N[C@@H](CCCNC(=N)N)C(=O)N[C@@H](CCCNC(=N)N)C(=O)N[C@@H](CCC(N)=O)C(=O)N[C@@H](CCC(=O)O)C(=O)N[C@@H](C)C(=O)N[C@H](C(=O)N[C@@H](CC(=O)O)C(=O)N[C@@H](C)C(=O)N[C@@H](CC(C)C)C(=O)N[C@H](SC1CC(=O)N(CCOCCOCCOCCN2C(=O)CC(OP(=O)(O)OP(=O)(O)OP(=O)(O)OC[C@H]3O[C@@H](n4cnc5c(N)ncnc54)[C@H](O)[C@@H]3O)C2=O)C1=O)C(=O)O)C(C)C (some centres undefined) (Biotin-KKALRRQEAVDAL[X1]-OH) | 0.305 |
